From PubChem BioAssay (NCI)
Several values for one entry are separate records, joined by “and”; a condition that tells them apart may be missing. Identical values can stand only once.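 1) Cells in 96-well plates. 2) Compound, 48 h, 5 concentrations. 3) Linear interpolation between surrounding doses. 4) Unreached endpoint = highest concentration. GI50 = concentration required for 50% inhibition of growth. TGI: total growth inhibition.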

Legend:
Assay in all cases: NCI tumour cell line growth inhibition, 48 h
ACHN renal = test system: ACHN renal
CCRF-CEM leukemia = test system: CCRF-CEM leukemia
HCT-116 colon = test system: HCT-116 colon
HS 578T breast = test system: HS 578T breast
LOX IMVI melanoma = test system: LOX IMVI melanoma
MCF7 breast = test system: MCF7 breast
MDA-N = test system: MDA-N
RXF 393 renal = test system: RXF 393 renal
SN12C renal = test system: SN12C renal
T-47D breast = test system: T-47D breast
TK-10 renal = test system: TK-10 renal
U251 CNS = test system: U251 CNS
HOP-92 NSCLC = test system: HOP-92 NSCLC
NCI-H522 lung = test system: NCI-H522 lung
SK-MEL-2 melanoma = test system: SK-MEL-2 melanoma

Compound	TGI (ACHN renal)	TGI (CCRF-CEM leukemia)	TGI (HCT-116 colon)	TGI (HS 578T breast)	TGI (LOX IMVI melanoma)	TGI (MCF7 breast)	TGI (MDA-N)	TGI (RXF 393 renal)	TGI (SN12C renal)	TGI (T-47D breast)	TGI (TK-10 renal)	TGI (U251 CNS)	TGI (HOP-92 NSCLC)	TGI (NCI-H522 lung)	TGI (SK-MEL-2 melanoma)	GI50 (MCF7 breast)	GI50 (NCI-H522 lung)	GI50 (RXF 393 renal)	GI50 (SK-MEL-2 melanoma)	GI50 (U251 CNS)
CCSc1nc(N)c2c(-c3ccc(OC)c(OC)c3)c3c(nc2n1)CCCC3	> 100 µM	> 100 µM	> 100 µM	> 100 µM	> 100 µM	> 100 µM	> 100 µM	> 100 µM	> 100 µM	> 100 µM	> 100 µM	> 100 µM	–	–	–	–	–	–	–	–
CC1C(=O)OC2CC[N+]3(CC(=O)c4ccc(Br)cc4)CC=C(COC(=O)C(C)(O)C1(C)O)C23 (centres undefined)	–	> 375 µM	> 375 µM	–	> 375 µM	> 375 µM	–	> 375 µM	> 375 µM	–	–	> 375 µM	> 375 µM	> 375 µM	> 375 µM	–	–	–	–	–
COC(=O)CCC(=O)CC(=O)C1=NS(=O)(=O)c2nc(S(N)(=O)=O)c(Cl)cc2N1	> 100 µM	> 100 µM	> 100 µM	–	> 100 µM	–	–	> 100 µM	> 100 µM	–	> 100 µM	> 100 µM	> 100 µM	> 100 µM	> 100 µM	–	–	–	–	–
N#C[S-].[Nd+3].c1cnc2c(c1)ccc1cccnc12.c1cnc2c(c1)ccc1cccnc12.c1cnc2c(c1)ccc1cccnc12	13 µM	3.85 µM	6.43 µM	–	13.1 µM	–	–	–	14.2 µM	–	22 µM	12.4 µM	17.2 µM	18.1 µM	–	–	–	–	–	–
CN(C)c1ccc(/C=C2/SC(=S)NC2=O)cc1	> 100 µM	> 100 µM	> 100 µM	> 100 µM	> 100 µM	> 100 µM	> 100 µM	> 100 µM	> 100 µM	> 100 µM	53 µM	> 100 µM	> 100 µM	> 100 µM	> 100 µM	–	–	–	–	–
Cc1cc(NC(=S)Nc2ccccc2)c(NC(=S)Nc2ccccc2)cc1C	–	> 74.9 µM	> 100 µM	–	> 100 µM	98.6 µM	–	> 80.8 µM	> 100 µM	–	–	> 63.4 µM	> 100 µM	32.4 µM	> 31.6 µM	–	–	–	–	–
Nc1ccccc1CCCC(=O)O	> 100 µM	> 100 µM	> 100 µM	> 100 µM	> 100 µM	> 100 µM	> 100 µM	> 100 µM	> 100 µM	> 100 µM	> 100 µM	> 100 µM	> 100 µM	> 100 µM	> 100 µM	–	–	–	–	–
CC(C)(C)NCc1cc(Nc2ccnc3cc(Cl)ccc23)cc(-c2ccc(Cl)cc2)c1O	15 µM	5.77 µM	5.79 µM	6.37 µM	5.64 µM	3.13 µM	3.19 µM	4.66 µM	8.9 µM	13.3 µM	7.76 µM	8.65 µM	7.08 µM	7.51 µM	4.02 µM	–	–	–	–	–
CC1=C(C)C(=O)O[C@@H]([C@](C)(O)[C@]2(O)CC[C@@]3(O)[C@@H]4C[C@H]5O[C@]56[C@@H](O)C=CC(=O)[C@]6(C)[C@H]4CC[C@]23C)C1	–	–	2.88 µM	–	2.64 µM	2.94 µM and 3.41 µM	–	0.575 µM and 0.516 µM	6.59 µM	–	–	6.71 µM and 6.54 µM	0.345 µM	2.16 µM and 1 µM	1.65 µM and 2.56 µM	0.164 µM	0.0804 µM and 0.0721 µM	0.21 µM and 0.0646 µM	0.385 µM	2.51 µM
S=C1SC(=Nc2ccccc2)C(=Nc2ccccc2)N1c1ccccc1	–	> 100 µM	> 100 µM	> 100 µM	–	> 100 µM	> 100 µM	> 100 µM	> 100 µM	> 100 µM	–	> 100 µM	–	> 100 µM	> 100 µM	–	–	–	–	–
C[n+]1c2ccccc2c(CNc2ccc(S(=O)(=O)N=C(N)N)cc2)c2ccccc21	> 100 µM	7.16 µM	27.2 µM	–	20.2 µM	–	–	34.1 µM	27.8 µM	–	> 100 µM	–	54.3 µM	32.3 µM	59.5 µM	–	–	–	–	–
COCO[C@@H]1C[C@H]2C(O)Nc3ccccc3C(=O)N2C1 (some centres undefined)	> 100 µM	> 100 µM	–	> 100 µM	> 100 µM	> 100 µM	> 100 µM	> 100 µM	–	> 100 µM	> 100 µM	> 100 µM	> 100 µM	–	> 100 µM	–	–	–	–	–
